These results are taken from article PMC7485140 (Clinical Pharmacology and Therapeutics, 2020).

Read-outs that look alike come from different tables or passages of the source. Starred links: 1 amine or outer side, 2 acyl side, 3 side chain; linkers in the order of their positions; H or OH if unused. Positions of bridges follow the written chain, without caps; N, C: chain ends. Non-standard residues stand in square brackets, D forms with d. Residues, ends and D or L forms follow the SMILES beside them. *: point of attachment. pTerphenylCO(4''-OnC5H11) = CCCCCOc1ccc(-c2ccc(-c3ccc(C(=O)*)cc3)cc2)cc1; Orn(4R-OH,5R-OH) = O=C([C@H](C[C@@H](O)[C@@H](O)N[*:3])N[*:1])[*:2]; hTyr(3S-OH,4S-OH) = N[C@H](C(=O)O)[C@H](O)[C@@H](O)c1ccc(O)cc1; Pro(3S-OH,4S-Me) = C[C@H]1CN[C@H](C(=O)O)[C@H]1O; Hyp = O=C(O)[C@@H]1C[C@@H](O)CN1

Data set [1] can be described thus: Pooled population PK analysis of i.v. anidulafungin. In kind it is in vivo, human. To be noted: patients aged 1 month to < 2 years, n = 23, i.v. LD/MD 3.0/1.5 mg/kg q.d., weight-corrected, final PK model; for Vd: Vss.
For data set [2] the following is noted: cited from earlier work.
For data set [3] the following is noted: adult patients with serious fungal infections; cited from earlier work.
For data set [4] the following is noted: cited from earlier work. This is another data set of the same source.
Where [5] appears, read: infant patients at high risk for invasive fungal infections.
Setting [6] is: neonatal patients at high risk for invasive fungal infections.

Take `CCCCCOc1ccc(-c2ccc(-c3ccc(C(=O)N[C@H]4C[C@@H](O)[C@@H](O)NC(=O)[C@@H]5[C@@H](O)[C@@H](C)CN5C(=O)[C@H]([C@@H](C)O)NC(=O)[C@H]([C@H](O)[C@@H](O)c5ccc(O)cc5)NC(=O)[C@@H]5C[C@@H](O)CN5C(=O)[C@H]([C@@H](C)O)NC4=O)cc3)cc2)cc1` [anidulafungin] ({pTerphenylCO(4''-OnC5H11)}-[Orn(4R-OH,5R-OH)]T[Hyp][hTyr(3S-OH,4S-OH)]T[Pro(3S-OH,4S-Me)]; lactam 1-C): the clearance in data set [1] (human, plasma, iv, CL, Mean (SD), SD) is 0.35 mL/min/kg. Also, the Vd amounted to 0.77 L/kg in data set [1] (human, plasma, iv, Mean (SD), SD) and 0.75 L/kg in data set [1] (human, plasma, iv, Median (range)). For the same compound, the “CL, Median (range)” value in data set [1] was 0.021 (0.006–0.032) L/hour/kg. Also, the “mean CL” value in data set [2] (setting [5]) is 0.25 mL/min/kg; in data set [2] (setting [6]), 0.333 mL/min/kg; in data set [3], 1.0 L/h. For the same compound, the figures for the “mean Vss” value in data set [2] (setting [5]) and in data set [2] (setting [6]) were 0.9 L/kg and 1.7 L/kg, respectively. Further, the “median AUCss” value in data set [2] (setting [5]) is 97700 ng·h/mL; in data set [2] (setting [6]), 74900 ng·h/mL. Also, the “chemical stability in blood” value in data set [4] (blood at physiologic temperature and pH) was “slow chemical degradation”. Moreover, the hepatic metabolism entry in data set [4] is “not metabolized by the liver”. Moreover, in data set [4] (negligible renal clearance), the “renal CL” value was less than 1%.
